Laboratory results published in PMC4085075, “Characterization of Estrogen and Androgen Activity of Food Contact Materials by Different In Vitro Bioassays (YES, YAS, ERα and AR CALUX) and Chromatographic Analysis (GC-MS, HPLC-MS)” (PLoS ONE, 2014).
Like-named read-outs stand apart in the source and are kept apart here.

Experiments:
CHO-K1 cells = tested on: CHO-K1 cells; parameters: method as in PMID 18261797; conditions: cited from earlier work
[1] = molecular target: T1, human estrogen receptor (hERα) (Homo sapiens, UniProt P03372); experiment: Yeast estrogen screen (YES); format: cell-based
T1 construct: expressed in transfected cells; host or cells: recombinant yeast strain (provided by Wagner and Oehlmann, Frankfurt; by permission of Routledge and Sumpter)
T1 sequence (P03372 1-595): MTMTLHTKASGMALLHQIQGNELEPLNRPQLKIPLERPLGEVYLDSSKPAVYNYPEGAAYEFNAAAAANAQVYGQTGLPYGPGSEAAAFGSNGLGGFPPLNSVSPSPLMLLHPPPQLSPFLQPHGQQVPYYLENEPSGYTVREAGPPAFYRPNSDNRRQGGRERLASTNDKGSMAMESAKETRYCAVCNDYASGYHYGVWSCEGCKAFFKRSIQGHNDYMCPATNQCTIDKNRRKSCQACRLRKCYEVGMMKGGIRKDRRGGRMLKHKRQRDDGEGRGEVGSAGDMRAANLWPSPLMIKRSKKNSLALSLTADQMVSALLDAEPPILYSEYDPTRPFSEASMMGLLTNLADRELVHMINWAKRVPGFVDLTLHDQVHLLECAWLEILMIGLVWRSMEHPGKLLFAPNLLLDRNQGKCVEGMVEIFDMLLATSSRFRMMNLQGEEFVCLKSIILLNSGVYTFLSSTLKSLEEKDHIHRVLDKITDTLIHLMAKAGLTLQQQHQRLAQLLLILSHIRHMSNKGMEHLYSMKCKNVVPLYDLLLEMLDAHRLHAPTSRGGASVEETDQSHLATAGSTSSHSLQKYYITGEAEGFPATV
Protocol: (§1) Briefly, different resin types of food packaging were migrated with food simulants for 10 days at 60°C. […] From every sample two independent migrates were prepared, subsequently concentrated by solid phase extraction and tested in the bioassays. […] For each migration a solvent blank of each food simulant was migrated in a glass bottle with a polytetrafluorethylene-coated cap. Prior to solid phase extraction, 1 ml and 20 ml of each migrate were set aside for HPLC and GC analysis.
(§2) After 10 days of migration, solid phase extraction by Waters Oasis HLB columns (5 cc/200 mg) was used to extract hormone active components from the food simulants. As described in detail by Kirchnawy et al. sample migrates diluted to 10% ethanol and adjusted to pH 3 were drawn through the columns and eluted into […] DMSO. Elutes were evaporated under a nitrogen stream to a final volume of 150–200 µl and stored at 4°C prior to analysis by YES, YAS and CALUX bioassays. Extraction recoveries and reproducibility of the solid phase extraction were previously determined by Kirchnawy et al..
The yeast strain contains the stably integrated human estrogen receptor (hERα) gene and an expression plasmid containing the reporter gene lacZ under the control of estrogen responsive elements (ERE). The activation of the hERα by the binding of an estrogen active substance leads to the expression of β-galactosidase, which converts the substrate chlorophenol red-β-D-galactopyranoside (CPRG) into chlorophenol red.
The analysis of food contact materials was conducted as previously described by Kirchnawy et al.. Briefly, yeast cells were incubated with fresh media supplemented with 1% of the respective DMSO sample extracts on a 96-well microtiter plate for 24 h. […] The regression was calculated by MS Excel, using the formula for a linear regression curve (y = kx + d).

rainbow trout = tested on: rainbow trout; parameters: method as in PMID 18261797; conditions: cited from earlier work
[2] = molecular target: T2, human estrogen receptor alpha (hERα) (Homo sapiens, UniProt P03372); experiment: ERα CALUX reporter gene assay in U2-OS cells; format: cell-based; conditions: for EC50: footnote a: inhibition of U2-OS cell growth at higher concentrations
T2 construct: host or cells: human U2-OS osteosarcoma cells
T2 sequence (P03372 1-595): T1 sequence (P03372 1-595)
Protocol: as §1, §2
The ERα CALUX is a human U2-OS cell line stably co-transfected with an expression construct for the human estrogen receptor alpha (hERα). Activation of the hERα by the binding of an estrogen active substance leads to the transcription of luciferase, which emits light when luciferin is added as a substrate.
Assay procedure was conducted as previously described by Sonneveld et al. with modifications. U2-OS cells were plated at a concentration of 10 000 cells/well with 100 µl phenol red-free Dulbecco's modified eagle medium (DMEM) (supplemented with dextran-coated charcoal-stripped FCS) in a 96-well microtiter plate. After 24 h incubation at 37°C in a humidified atmosphere with 5% CO2, DMEM medium was refreshed and cells were incubated for another 24 h with 0.5% of the respective DMSO sample extract. After examining cell growth under a microscope to ensure that sample extracts had no cytotoxic or growth inhibiting effects, 50 µl Steady Glo Luciferase-Mix (Promega) was added to each well and incubated for 15 min for cell lysis. This was followed by measuring the luciferase activity of each well using a multilabel reader (Victor^3, Perkin Elmer).

[3] = tested on: kidney fibroblast cell 293T and human breast cancer cells ZR-75; parameters: method as in PMID 7556011; conditions: at a concentration of 100 µmol/l; cited from earlier work
[4] = parameters: method as in PMID 21050888; conditions: cited from earlier work
MCF7 = tested on: MCF7; parameters: method as in PMID 11485868; conditions: human cell-based MCF7 proliferation assay; cited from earlier work
[5] = molecular target: T3, human androgen receptor (hAR) (Homo sapiens, UniProt P10275); experiment: AR CALUX reporter gene assay in U2-OS cells; format: cell-based; parameters: host or cells: human U2-OS osteosarcoma cells; conditions: footnote a: inhibition of U2-OS cell growth at higher concentrations
T3 sequence (P10275 1-920): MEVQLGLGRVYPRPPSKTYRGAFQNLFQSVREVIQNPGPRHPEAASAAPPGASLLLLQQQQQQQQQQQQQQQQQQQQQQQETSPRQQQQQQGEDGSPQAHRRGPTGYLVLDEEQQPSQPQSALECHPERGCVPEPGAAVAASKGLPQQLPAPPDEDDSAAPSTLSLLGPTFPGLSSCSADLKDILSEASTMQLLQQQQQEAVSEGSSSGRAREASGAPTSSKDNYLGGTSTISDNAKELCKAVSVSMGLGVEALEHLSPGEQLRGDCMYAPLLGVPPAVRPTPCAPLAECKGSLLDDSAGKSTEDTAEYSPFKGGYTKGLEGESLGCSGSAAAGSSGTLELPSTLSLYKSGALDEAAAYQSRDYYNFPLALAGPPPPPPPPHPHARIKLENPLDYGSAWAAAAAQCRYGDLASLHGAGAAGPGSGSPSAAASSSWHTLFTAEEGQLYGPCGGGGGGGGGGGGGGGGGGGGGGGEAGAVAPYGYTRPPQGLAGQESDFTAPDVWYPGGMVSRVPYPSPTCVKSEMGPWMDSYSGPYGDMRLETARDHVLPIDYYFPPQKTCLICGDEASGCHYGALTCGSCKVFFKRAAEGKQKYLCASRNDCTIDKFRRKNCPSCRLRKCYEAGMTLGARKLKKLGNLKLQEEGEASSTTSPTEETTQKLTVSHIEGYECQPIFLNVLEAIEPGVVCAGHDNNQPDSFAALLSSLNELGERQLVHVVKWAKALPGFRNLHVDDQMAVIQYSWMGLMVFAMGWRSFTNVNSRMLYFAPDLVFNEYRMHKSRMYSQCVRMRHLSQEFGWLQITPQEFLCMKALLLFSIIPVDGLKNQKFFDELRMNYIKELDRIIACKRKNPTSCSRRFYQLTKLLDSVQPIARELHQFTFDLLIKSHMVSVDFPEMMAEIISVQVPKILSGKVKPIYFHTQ
Protocol: as §1, §2

[6] = molecular target: T3, human androgen receptor (hAR); experiment: Yeast androgen screen (YAS); format: cell-based; conditions: footnote b: inhibition of yeast growth at higher concentrations
Protocol: as §1, §2

[7] = agonist mode, footnote b: inhibition of yeast growth at higher concentrations, read-out: YES Estrogen activity EC50
[8] = antagonist mode, spiked with 80 pmol/l 17β-estradiol, footnote b: inhibition of yeast growth at higher concentrations, read-out: YES Antiestrogen activity EC50
[9] = agonist mode, read-out: ER CALUX Estrogen activity EC50
[10] = antagonist mode, spiked with 8 pmol/l 17β-estradiol, read-out: ER CALUX Antiestrogen activity EC50

For `CC(C)(C)c1ccc(O)c(C(C)(C)C)c1` [2,4-di-tert-butylphenol], the “androgen antagonist in CHO-K1 cells” value (CHO-K1 cells) is given as “androgen antagonist”, the EC50 [1, 7] is given as > 10 µM and the EC50 [1, 8] is given as > 10 µM. The “androgen antagonist in rainbow trout” value (rainbow trout) was “androgen antagonist”, the EC50 [2, 9] was > 20 µM and the EC50 [2, 10] was > 20 µM.
For `CC(C)(c1ccccc1)c1ccc(O)c(C(C)(C)c2ccccc2)c1` [2,4-di-cumylphenol], the EC50 [1] was > 300 µM, the “estrogen activity in the YES (in words)” value ([1]; agonist mode) was “showed estrogen activity” and the EC50 ([2]; ER CALUX Antiestrogen activity EC50, antagonist mode, spiked with 8 pmol/l 17β-estradiol) was > 20 µM. For the same compound, the EC50 ([2]; ER CALUX Estrogen activity EC50, agonist mode) was 5 µM and the “estrogen activity in the ERα CALUX (in words)” value ([2]; agonist mode) was “showed estrogen activity”.
For `Cc1cc(C(C)(C)C)c(O)c(C(C)(C)C)c1` [2,6-bis(1,1-dimethylethyl)-4-methylphenol], the “estrogen activity in 293T and ZR-75 cells” value [3] is given as “tested positive for estrogen”.
With `CCCCC(CC)COC(=O)CCCCC(=O)OCC(CC)CCCC` (stereo not drawn) [diethylhexyladipate (DEHA), diethylhexyladipate] the “estrogen activity in the YES (in words)” value ([1]; agonist mode) was “did not show any activity”, the EC50 [1, 7] was > 1000 µM and the EC50 [1, 8] was > 1000 µM. The “estrogen activity using the E-Screen” value [4] was “tested positive for estrogen activity”, the “estrogen activity in the ERα CALUX (in words)” value ([2]; agonist mode) was “did not show any activity” and the EC50 [2, 9] was > 500 µM. For the same compound, the EC50 [2, 10] was > 500 µM.
For `c1ccc(C2CCC2c2ccccc2)cc1` (stereo not drawn) [1,2-diphenylcyclobutane], the “times less active than 17β-estradiol” value (MCF7) is listed as 4*10^5.
With `c1ccc(CCCc2ccccc2)cc1` [1,3-diphenylpropane] the EC50 ([5]; agonist mode, read-out: AR CALUX Androgen activity EC50) was > 500 µM, the EC50 ([5]; antagonist mode, spiked with 400 pmol/l DHT, read-out: AR CALUX Antiandrogen activity EC50) was 30 µM and the “estrogen activity in the YES (in words)” value ([1]; agonist mode) was “tested positive for estrogen activity”. For the same compound, the EC50 [1, 7] was 500 µM, the EC50 [1, 8] was > 1000 µM and the “estrogen activity in the ERα CALUX (in words)” value ([2]; agonist mode) was “tested positive for estrogen activity”. The EC50 [2, 9] was 40 µM, the EC50 [2, 10] was > 500 µM and the EC50 ([6]; agonist mode, read-out: YAS Androgen activity EC50) was > 1000 µM. It also gave an EC50 ([6]; antagonist mode, spiked with 2.4 nmol/l DHT, read-out: YAS Antiandrogen activity EC50) of 30 µM.
